# Experiments:
# [1] = biological target: Cyclin-dependent kinase 7 (Homo sapiens) (UniProt P50613); test: Inhibition of wild-type human full length CDK7 (M1 to L344 residues) expressed in mammalian expression system at 1 uM by Kinomescan method relative to control
# [2] = biological target: Mitogen-activated protein kinase 15 (Homo sapiens) (UniProt Q8TD08); test: Inhibition of wild-type human partial length ERK8 (M1 to P437 residues) expressed in bacterial expression system at 1 uM by Kinomescan method relative to control
# [3] = biological target: Receptor-type tyrosine-protein kinase FLT3 (Homo sapiens) (UniProt P36888); test: Inhibition of wild-type human partial length autoinhibited FLT3 (H564 to Y969 residues) expressed in mammalian expression system at 1 uM by Kinomescan method relative to control
# [4] = biological target: Rhodopsin kinase GRK7 (Homo sapiens) (UniProt Q8WTQ7); test: Inhibition of wild-type human full length GRK7 (M1 to L553 residues) expressed in mammalian expression system at 1 uM by Kinomescan method relative to control
# [5] = biological target: Glycogen synthase kinase-3 beta (Homo sapiens) (UniProt P49841); test: Inhibition of wild-type human full length GSK3B (M1 to T433 residues) expressed in mammalian expression system at 1 uM by Kinomescan method relative to control
# [6] = system: Mast/stem cell growth factor receptor Kit (Homo sapiens), P10721 [V559D,T670I]; test: Inhibition of human partial length KIT V559D/T670I double mutant (Y545 to D952 residues) expressed in bacterial expression system at 1 uM by Kinomescan method relative to control
# [7] = biological target: LIM domain kinase 1 (Homo sapiens) (UniProt P53667); test: Inhibition of wild-type human full length LIMK1 (M1 to D647 residues) expressed in bacterial expression system at 1 uM by Kinomescan method relative to control
# [8] = system: Hepatocyte growth factor receptor (Homo sapiens), P08581 [M1250T]; test: Inhibition of human partial length MET M1250T mutant (D1010 to S1367 residues) expressed in bacterial expression system at 1 uM by Kinomescan method relative to control
# [9] = biological target: Serine/threonine-protein kinase Nek6 (Homo sapiens) (UniProt Q9HC98); test: Inhibition of wild-type human full length NEK6 (M8 to T313 residues) expressed in bacterial expression system at 1 uM by Kinomescan method relative to control
# [10] = biological target: Phosphatidylinositol 4-kinase beta (Homo sapiens) (UniProt Q9UBF8); test: Inhibition of wild-type human full length PIK4CB (M1 to M828 residues) expressed in mammalian expression system at 1 uM by Kinomescan method relative to control
# [11] = biological target: Serine/threonine-protein kinase N1 (Homo sapiens) (UniProt Q16512); test: Inhibition of wild-type human partial length PKN1 (E598 to C948 residues) expressed in bacterial expression system at 1 uM by Kinomescan method relative to control
# [12] = biological target: Serine/threonine-protein kinase D1 (Homo sapiens) (UniProt Q15139); test: Inhibition of wild-type human partial length PRKD1 (G551 to E870 residues) expressed in bacterial expression system at 1 uM by Kinomescan method relative to control
# [13] = biological target: Ribosomal protein S6 kinase beta-1 (Homo sapiens) (UniProt P23443); test: Inhibition of wild-type human partial length S6K1 (M1 to S421 residues) expressed in mammalian expression system at 1 uM by Kinomescan method relative to control
# [14] = biological target: Serine/threonine-protein kinase tousled-like 1 (Homo sapiens) (UniProt Q9UKI8); test: Inhibition of wild-type human partial length TLK1 (K447 to A754 residues) expressed in bacterial expression system at 1 uM by Kinomescan method relative to control
# [15] = biological target: Non-receptor tyrosine-protein kinase TNK1 (Homo sapiens) (UniProt Q13470); test: Inhibition of wild-type human full length TNK1 (M1 to P661 residues) expressed in bacterial expression system at 1 uM by Kinomescan method relative to control
# [16] = system: Tyrosine-protein kinase ABL1 (Homo sapiens), P00519 [F317I]; test: Inhibition of human non-phosphorylated ABL1 F317I mutant (S229 to K512 residues) expressed in mammalian expression system at 10 uM by Kinomescan method relative to control
# [17] = biological target: Calcium/calmodulin-dependent protein kinase type II subunit beta (Homo sapiens) (UniProt Q13554); test: Inhibition of wild-type human partial length CAMK2B (M1 to Q380 residues) expressed in bacterial expression system at 10 uM by Kinomescan method relative to control
# [18] = biological target: Cyclin-dependent kinase 7 (Homo sapiens) (UniProt P50613); test: Inhibition of wild-type human full length CDK7 (M1 to L344 residues) expressed in mammalian expression system at 10 uM by Kinomescan method relative to control
# [19] = system: Receptor-type tyrosine-protein kinase FLT3 (Homo sapiens), P36888 [N841I]; test: Inhibition of human partial length FLT3 N841I mutant (V592 to Y969 residues) expressed in bacterial expression system at 10 uM by Kinomescan method relative to control
# [20] = biological target: Tyrosine-protein kinase JAK1 (Homo sapiens) (UniProt P23458); test: Inhibition of wild-type human partial length JAK1 JH1 catalytic domain (V856 to K1154 residues) expressed in bacterial expression system at 10 uM by Kinomescan method relative to control
# [21] = system: Mast/stem cell growth factor receptor Kit (Homo sapiens), P10721 [V559D]; test: Inhibition of human partial length KIT V559D mutant (Y545 to D952 residues) expressed in bacterial expression system at 10 uM by Kinomescan method relative to control
# [22] = biological target: Mitogen-activated protein kinase kinase kinase 11 (Homo sapiens) (UniProt Q16584); test: Inhibition of wild-type human partial length MLK3 (I77 to W399 residues) expressed in bacterial expression system at 10 uM by Kinomescan method relative to control
# [23] = biological target: Phosphatidylinositol 4-kinase beta (Homo sapiens) (UniProt Q9UBF8); test: Inhibition of wild-type human full length PIK4CB (M1 to M828 residues) expressed in mammalian expression system at 10 uM by Kinomescan method relative to control
# [24] = biological target: Receptor-interacting serine/threonine-protein kinase 4 (Homo sapiens) (UniProt P57078); test: Inhibition of wild-type human partial length RIPK4 (M1 to V303 residues) expressed in mammalian expression system at 10 uM by Kinomescan method relative to control
# [25] = biological target: Serine/threonine-protein kinase ULK3 (Homo sapiens) (UniProt Q6PHR2); test: Inhibition of wild-type human partial length ULK3 (M1 to Q290 residues) expressed in mammalian expression system at 10 uM by Kinomescan method relative to control
# [26] = biological target: Serine/threonine-protein kinase VRK2 (Homo sapiens) (UniProt Q86Y07); test: Inhibition of wild-type human partial length VRK2 (M1 to T336 residues) expressed in mammalian expression system at 10 uM by Kinomescan method relative to control
# [27] = biological target: Mitogen-activated protein kinase kinase kinase 20 (Homo sapiens) (UniProt Q9NYL2); test: Inhibition of wild-type human partial length ZAK (M1 to L331 residues) expressed in bacterial expression system at 10 uM by Kinomescan method relative to control
# Chain of Mitogen-activated protein kinase kinase kinase 20 (Homo sapiens) (Q9NYL2 2-800 limits assumed): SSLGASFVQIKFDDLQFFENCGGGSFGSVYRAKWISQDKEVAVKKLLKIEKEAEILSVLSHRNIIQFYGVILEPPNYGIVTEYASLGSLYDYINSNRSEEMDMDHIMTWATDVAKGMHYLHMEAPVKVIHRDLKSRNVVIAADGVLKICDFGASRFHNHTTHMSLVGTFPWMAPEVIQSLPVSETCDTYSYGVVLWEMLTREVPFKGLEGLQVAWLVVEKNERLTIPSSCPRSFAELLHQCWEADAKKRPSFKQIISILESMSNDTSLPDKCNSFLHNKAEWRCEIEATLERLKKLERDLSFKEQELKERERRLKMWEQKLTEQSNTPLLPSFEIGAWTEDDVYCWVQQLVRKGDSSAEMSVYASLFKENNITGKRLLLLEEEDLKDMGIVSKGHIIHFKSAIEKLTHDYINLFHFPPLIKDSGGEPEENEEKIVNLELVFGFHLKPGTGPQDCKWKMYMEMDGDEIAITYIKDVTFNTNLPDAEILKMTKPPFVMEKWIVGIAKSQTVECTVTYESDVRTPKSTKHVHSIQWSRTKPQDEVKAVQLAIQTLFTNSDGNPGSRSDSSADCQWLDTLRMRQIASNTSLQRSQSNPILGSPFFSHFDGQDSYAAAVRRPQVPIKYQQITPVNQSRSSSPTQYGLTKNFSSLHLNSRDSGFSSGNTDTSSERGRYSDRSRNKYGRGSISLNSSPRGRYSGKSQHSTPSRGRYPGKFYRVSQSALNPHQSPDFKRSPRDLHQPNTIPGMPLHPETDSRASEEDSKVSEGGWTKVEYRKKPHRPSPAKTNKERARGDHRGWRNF
# Chain of Cyclin-dependent kinase 7 (Homo sapiens) (P50613 whole entry, the tested form may be a part): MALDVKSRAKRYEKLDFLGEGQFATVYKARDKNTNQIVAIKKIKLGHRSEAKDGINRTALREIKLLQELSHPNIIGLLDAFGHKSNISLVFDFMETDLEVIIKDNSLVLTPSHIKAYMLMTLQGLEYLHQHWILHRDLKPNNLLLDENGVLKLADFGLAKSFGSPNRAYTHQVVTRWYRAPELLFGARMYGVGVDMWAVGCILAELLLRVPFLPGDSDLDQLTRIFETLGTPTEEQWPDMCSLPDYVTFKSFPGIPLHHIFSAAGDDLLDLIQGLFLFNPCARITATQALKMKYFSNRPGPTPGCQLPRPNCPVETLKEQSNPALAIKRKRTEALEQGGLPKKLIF
# Chain of Phosphatidylinositol 4-kinase beta (Homo sapiens) (Q9UBF8 2-816 limits assumed): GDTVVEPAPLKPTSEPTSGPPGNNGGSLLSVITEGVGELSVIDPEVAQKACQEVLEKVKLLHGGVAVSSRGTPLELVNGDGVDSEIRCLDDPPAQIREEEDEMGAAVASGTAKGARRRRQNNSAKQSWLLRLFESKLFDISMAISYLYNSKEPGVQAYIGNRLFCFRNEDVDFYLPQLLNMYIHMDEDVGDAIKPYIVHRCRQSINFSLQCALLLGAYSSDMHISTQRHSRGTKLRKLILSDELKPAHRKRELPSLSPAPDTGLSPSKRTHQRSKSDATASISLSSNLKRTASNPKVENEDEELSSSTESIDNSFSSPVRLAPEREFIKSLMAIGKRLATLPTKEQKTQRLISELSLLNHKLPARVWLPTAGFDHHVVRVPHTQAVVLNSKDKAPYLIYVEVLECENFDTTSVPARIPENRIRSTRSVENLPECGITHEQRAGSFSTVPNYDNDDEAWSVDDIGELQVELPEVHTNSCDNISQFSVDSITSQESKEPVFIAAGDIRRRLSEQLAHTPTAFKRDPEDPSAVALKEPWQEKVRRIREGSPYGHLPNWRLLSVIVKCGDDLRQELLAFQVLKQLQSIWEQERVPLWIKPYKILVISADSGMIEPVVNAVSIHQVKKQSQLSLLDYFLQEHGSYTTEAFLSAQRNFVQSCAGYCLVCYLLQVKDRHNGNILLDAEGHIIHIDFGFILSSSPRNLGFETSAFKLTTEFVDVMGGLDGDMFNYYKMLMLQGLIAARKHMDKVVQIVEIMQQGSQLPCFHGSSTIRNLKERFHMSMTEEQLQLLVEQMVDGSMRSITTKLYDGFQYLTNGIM
# Chain of LIM domain kinase 1 (Homo sapiens) (P53667 whole entry, looked up, the tested form may be a part): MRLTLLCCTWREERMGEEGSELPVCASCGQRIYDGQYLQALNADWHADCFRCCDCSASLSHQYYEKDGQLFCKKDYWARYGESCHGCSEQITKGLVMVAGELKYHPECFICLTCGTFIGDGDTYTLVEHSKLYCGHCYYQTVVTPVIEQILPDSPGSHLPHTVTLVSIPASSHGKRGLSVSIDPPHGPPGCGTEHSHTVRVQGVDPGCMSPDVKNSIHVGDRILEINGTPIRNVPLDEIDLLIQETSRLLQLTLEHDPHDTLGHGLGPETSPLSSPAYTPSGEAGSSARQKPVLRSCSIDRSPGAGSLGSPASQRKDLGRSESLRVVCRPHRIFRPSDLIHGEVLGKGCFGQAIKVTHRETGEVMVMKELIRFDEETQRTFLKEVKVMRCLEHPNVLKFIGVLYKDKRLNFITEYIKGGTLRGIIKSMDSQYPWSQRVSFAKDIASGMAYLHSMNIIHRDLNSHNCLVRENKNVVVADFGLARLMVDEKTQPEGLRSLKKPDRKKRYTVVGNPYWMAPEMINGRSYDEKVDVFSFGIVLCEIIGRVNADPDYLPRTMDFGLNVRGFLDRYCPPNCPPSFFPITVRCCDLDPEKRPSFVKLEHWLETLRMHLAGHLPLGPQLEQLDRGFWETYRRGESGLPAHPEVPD
# Chain of Ribosomal protein S6 kinase beta-1 (Homo sapiens) (P23443 whole entry, looked up, the tested form may be a part): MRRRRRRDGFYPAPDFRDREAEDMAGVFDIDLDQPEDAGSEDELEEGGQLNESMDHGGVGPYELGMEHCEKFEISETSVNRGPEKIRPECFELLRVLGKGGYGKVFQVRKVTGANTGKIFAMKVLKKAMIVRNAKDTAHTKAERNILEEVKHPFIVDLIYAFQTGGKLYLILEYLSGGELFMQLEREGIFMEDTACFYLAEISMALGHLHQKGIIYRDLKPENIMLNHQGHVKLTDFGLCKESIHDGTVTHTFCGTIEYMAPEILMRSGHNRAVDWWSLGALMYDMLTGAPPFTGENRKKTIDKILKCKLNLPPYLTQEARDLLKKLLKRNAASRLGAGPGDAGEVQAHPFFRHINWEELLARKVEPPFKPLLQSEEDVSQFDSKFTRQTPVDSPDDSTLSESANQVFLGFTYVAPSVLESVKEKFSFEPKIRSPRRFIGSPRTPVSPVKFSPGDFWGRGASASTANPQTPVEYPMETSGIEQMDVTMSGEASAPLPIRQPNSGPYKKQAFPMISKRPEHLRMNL
# Chain of Rhodopsin kinase GRK7 (Homo sapiens) (Q8WTQ7 whole entry, the tested form may be a part): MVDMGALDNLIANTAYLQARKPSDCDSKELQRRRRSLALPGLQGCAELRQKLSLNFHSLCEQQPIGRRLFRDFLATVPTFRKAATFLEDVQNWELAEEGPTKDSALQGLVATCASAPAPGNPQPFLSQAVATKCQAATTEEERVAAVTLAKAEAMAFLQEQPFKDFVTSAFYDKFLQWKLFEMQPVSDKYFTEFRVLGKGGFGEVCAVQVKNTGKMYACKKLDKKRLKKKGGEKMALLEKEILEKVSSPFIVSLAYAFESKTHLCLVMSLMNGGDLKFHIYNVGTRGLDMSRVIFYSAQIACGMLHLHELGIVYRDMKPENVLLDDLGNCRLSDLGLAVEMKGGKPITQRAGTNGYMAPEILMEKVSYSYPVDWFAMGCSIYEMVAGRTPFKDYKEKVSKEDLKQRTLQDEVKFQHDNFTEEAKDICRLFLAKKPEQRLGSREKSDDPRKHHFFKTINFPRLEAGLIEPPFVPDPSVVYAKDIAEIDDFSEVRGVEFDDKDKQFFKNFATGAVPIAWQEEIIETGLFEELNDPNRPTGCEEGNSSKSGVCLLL
# Chain of Mitogen-activated protein kinase kinase kinase 11 (Homo sapiens) (Q16584 whole entry, looked up, the tested form may be a part): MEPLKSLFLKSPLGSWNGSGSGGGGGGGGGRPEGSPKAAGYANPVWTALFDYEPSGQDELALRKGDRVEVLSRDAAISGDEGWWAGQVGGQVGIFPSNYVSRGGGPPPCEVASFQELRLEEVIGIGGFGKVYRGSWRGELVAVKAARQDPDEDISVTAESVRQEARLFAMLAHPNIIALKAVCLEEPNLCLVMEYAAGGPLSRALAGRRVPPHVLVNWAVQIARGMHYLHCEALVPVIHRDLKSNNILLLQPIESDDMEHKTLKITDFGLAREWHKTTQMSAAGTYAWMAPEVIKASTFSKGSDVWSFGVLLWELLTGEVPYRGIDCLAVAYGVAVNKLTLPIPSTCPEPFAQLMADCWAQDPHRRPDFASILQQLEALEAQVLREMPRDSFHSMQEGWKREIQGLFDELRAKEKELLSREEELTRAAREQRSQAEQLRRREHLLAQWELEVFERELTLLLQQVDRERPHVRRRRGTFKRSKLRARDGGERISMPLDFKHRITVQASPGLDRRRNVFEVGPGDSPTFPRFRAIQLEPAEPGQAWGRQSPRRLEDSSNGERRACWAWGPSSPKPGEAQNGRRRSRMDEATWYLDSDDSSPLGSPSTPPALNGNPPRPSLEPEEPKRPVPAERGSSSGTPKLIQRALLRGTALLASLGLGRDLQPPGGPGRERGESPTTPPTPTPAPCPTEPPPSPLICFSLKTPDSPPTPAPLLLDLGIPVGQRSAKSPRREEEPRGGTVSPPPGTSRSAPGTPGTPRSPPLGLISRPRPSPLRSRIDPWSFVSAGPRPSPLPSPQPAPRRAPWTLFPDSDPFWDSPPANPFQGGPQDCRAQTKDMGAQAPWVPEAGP
# Chain of Serine/threonine-protein kinase ULK3 (Homo sapiens) (Q6PHR2 whole entry, the tested form may be a part): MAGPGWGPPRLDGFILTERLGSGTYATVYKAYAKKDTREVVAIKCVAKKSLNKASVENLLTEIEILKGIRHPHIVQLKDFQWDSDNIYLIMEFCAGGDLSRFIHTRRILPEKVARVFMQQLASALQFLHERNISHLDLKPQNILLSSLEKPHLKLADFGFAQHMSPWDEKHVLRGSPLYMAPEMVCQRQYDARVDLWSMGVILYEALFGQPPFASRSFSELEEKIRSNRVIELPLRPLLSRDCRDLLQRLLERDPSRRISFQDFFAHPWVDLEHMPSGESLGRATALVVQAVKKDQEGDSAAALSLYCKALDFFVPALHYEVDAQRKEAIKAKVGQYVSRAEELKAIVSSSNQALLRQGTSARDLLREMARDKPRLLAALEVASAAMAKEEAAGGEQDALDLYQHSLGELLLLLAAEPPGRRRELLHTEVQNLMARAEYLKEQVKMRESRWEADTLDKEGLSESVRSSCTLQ
smiles,measurement,setting,value
O=C(Nc1cccc([C@@H]2CN(c3ncnc4[nH]ccc34)CCN2CCO)c1)Nc1c(F)cccc1N1CCCC1,inhibition,[1],100%
same,inhibition,[2],81%
same,inhibition,[3],68%
same,inhibition,[4],99%
same,inhibition,[5],83%
same,inhibition,[6],64%
same,inhibition,[7],85%
same,inhibition,[8],91%
same,inhibition,[9],86%
same,inhibition,[10],100%
same,inhibition,[11],80%
same,inhibition,[12],100%
same,inhibition,[13],48%
same,inhibition,[14],100%
same,inhibition,[15],65%
O=C(Nc1cccc([C@H]2CCCN(c3ncnc4[nH]ccc34)C2)c1)Nc1ccccc1N1CCCC1,inhibition,[16],100%
same,inhibition,[17],87%
same,inhibition,[18],70%
same,inhibition,[19],12%
same,inhibition,[20],29%
same,inhibition,[21],0.15%
same,inhibition,[22],85%
same,inhibition,[23],89%
same,inhibition,[24],71%
same,inhibition,[25],6.2%
same,inhibition,[26],93%
same,inhibition,[27],100%

# Source: ChEMBL document CHEMBL4387741, “Optimization of novel reversible Bruton's tyrosine kinase inhibitors identified using Tethering-fragment-based screens” (Bioorg Med Chem, 2019)
